Like-named read-outs stand apart in the source and are kept apart here.
Legend:
[1] = tested on: T1, rAaChE1 (recombinant AaChE1, A. americanum cholinesterase 1); experiment: cholinesterase assay, absorbance at […] nm, microplate; format: biochemical, Amblyomma americanum; conditions: culture supernatant of baculovirus-infected Sf21 cells
T1 construct: pBlueBac4.5/V5-His in Sf21 cells (reverse primer appears to carry the native stop codon); unpurified culture supernatant

[2] = target: T1, rAaChE1 (recombinant AaChE1, A. americanum cholinesterase 1); experiment: cholinesterase inhibition assay, absorbance at […] nm; format: biochemical, Amblyomma americanum; design: unit not given here; conditions: 15 min preincubation, culture supernatant

SMILES	(IC50) ^2 / rAaChE1 (ATCh Substrate) ([2]; covalent)	further results
CC(=O)SCC[N+](C)(C)C [ATCh, acetylthiocholine]		Km ([1]; read-out: KM): 6.39 µM
C=CC[N+](C)(C)c1ccc(CCC(=O)CCc2ccc([N+](C)(C)CC=C)cc2)cc1 [BW284c51, 1,5-Bis(4-allyldimethylammoniumphenyl)pentan-3-one dibromide]		(IC50) ^2 / rAaChE1 (ATCh Substrate) [2]: 2.96 × 10^−7 (2.50–3.50 × 10^−7)
CCCC(=O)SCC[N+](C)(C)C [BuTCh, butyrylthiocholine]		Km ([1]; read-out: apparent KM): 14.2 µM
CCOP(=O)(OCC)Oc1ccc2c(C)c(Cl)c(=O)oc2c1 [Coroxon]	2.35 × 10^−11 (1.93–2.84 × 10^−11)	
CNC(=O)Oc1ccc2c(c1)[C@]1(C)CCN(C)[C@@H]1N2C [Eserine]	2.28 × 10^−10 (2.37–3.26 × 10^−10)	
CC(C)NP(=O)(NC(C)C)OP(=O)(NC(C)C)NC(C)C [Iso-OMPA]	3.48 × 10^−05 (2.76–4.43 × 10^−5)	
CCOC(=O)CC(SP(=O)(OC)OC)C(=O)OCC (stereo not shown) [Malaoxon]	2.77 × 10^−8 (2.45–3.14 × 10^−8)	

— publication PMC10178864, “Identification, Baculoviral Expression, and Biochemical Characterization of a Novel Cholinesterase of Amblyomma americanum (Acari: Ixodidae)” (International Journal of Molecular Sciences, 2023)
